Assay results published in ChEMBL document CHEMBL4825664, “17-Hydroxybrevianamide N and Its N1-Methyl Derivative, Quinazolinones from a Soft-Coral-Derived Aspergillus sp. Fungus: 13S Enantiomers as the True Natural Products” (J Nat Prod, 2021).
The source made the active and inactive calls.

Key:
Format in all cases: functional, organism-based
Escherichia coli = experiment: Antibacterial activity against Escherichia coli at 20 ug/ml; conditions: dose 20.0 µg/ml
Pseudomonas aeruginosa = experiment: Antibacterial activity against Pseudomonas aeruginosa at 20 ug/ml; conditions: dose 20.0 µg/ml
Influenza A virus = experiment: Antiviral activity against Influenza virus H1N1 at 100 uM
Candida albicans = experiment: Antifungal activity against Candida albicans at 20 ug/ml; conditions: dose 20.0 µg/ml
Staphylococcus aureus = experiment: Antibacterial activity against Staphylococcus aureus at 20 ug/ml; conditions: dose 20.0 µg/ml

Measured: Activity

CN1C(=O)c2nc3ccccc3c(=O)n2[C@H](Cc2ccccc2O)C1=O
inactive: Escherichia coli | Pseudomonas aeruginosa | Influenza A virus | Candida albicans | Staphylococcus aureus

O=C1NC(=O)[C@@H](Cc2ccccc2O)n2c1nc1ccccc1c2=O
inactive: Escherichia coli | Pseudomonas aeruginosa | Influenza A virus | Candida albicans | Staphylococcus aureus

CN1C(=O)c2nc3ccccc3c(=O)n2[C@@H](Cc2ccccc2O)C1=O
inactive: Escherichia coli | Pseudomonas aeruginosa | Influenza A virus | Candida albicans | Staphylococcus aureus

O=C1NC(=O)[C@H](Cc2ccccc2O)n2c1nc1ccccc1c2=O
inactive: Escherichia coli | Pseudomonas aeruginosa | Influenza A virus | Candida albicans | Staphylococcus aureus
